The term MIC denotes the lowest concentration that inhibits growth of the organism.

This is an account of results in patent publication US20220241249A1, “PHARMACEUTICAL COMPOSITION AND KIT CONTAINING NOVEL PENAM DERIVATIVE OR SALT THEREOF AND ONE OR MORE COMPOUNDS SELECTED FROM beta-LACTAMASE INHIBITORY COMPOUND AND ANTIBACTERIAL COMPOUND OR SALTS THEREOF” (priority 2019, published 2022).

In brackets after ≈: the same amount, converted by molar mass.

Common to all, as to assay type: cell-based
For experiment [1], the system named is AmpC-derepressed Pseudomonas aeruginosa mutant strain (S-3028). Nature of the experiment: Antibacterial activity evaluation test, MIC by broth microdilution (CLSI). As to conditions: for MIC: Pseudomonas aeruginosa. The procedure, abridged: (§1)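 Testing used compound-containing cation-adjusted Mueller Hinton broth seeded with a 10-fold dilution of a 0.5 McFarland suspension. After 16–20 h at 35° C., the lowest concentration with no visible growth was recorded as MIC in μg/mL.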
(In general: In broth dilution the organism is exposed to a series of concentrations in liquid medium.)

Experiment [2] concerns CTX-M-15-containing Escherichia coli strain (TK-1747). The experiment is described as above. To be noted: for MIC: Escherichia coli. The procedure, abridged:
as §1

For experiment [3], the system named is GES-19 and GES-20-containing Pseudomonas aeruginosa strain (S-3759). Described as above. To be noted: for MIC: Pseudomonas aeruginosa. The procedure, abridged:
as §1

Experiment [4] deals with IMP-1-containing Pseudomonas aeruginosa strain (S-2838). The experiment is described as above. To be noted: for MIC: Pseudomonas aeruginosa. The method, boiled down:
as §1

Experiment [5] has as its system KPC-2-containing Klebsiella pneumoniae strain (Y-995). The experiment is described as above. As to conditions: for MIC: Klebsiella pneumoniae. The method, boiled down:
as §1

The test system of experiment [6] is NDM-1-containing Klebsiella pneumoniae strain (Y-1007). The experiment is described as above. As to conditions: for MIC: Klebsiella pneumoniae. The procedure, abridged: as §1
Experiment [7] concerns OXA-48-containing Klebsiella pneumoniae strain (Y-1062). The experiment is described as above. As to conditions: for MIC: Klebsiella pneumoniae. The procedure, abridged: as §1
Experiment [8] has as its system Pseudomonas aeruginosa strain ATCC27853. The experiment is described as above. As to conditions: Pseudomonas aeruginosa, ATCC27853. The method, boiled down:
as §1

The subject of experiment [9] is VIM-2-containing Pseudomonas aeruginosa strain (S-3779). Described as above. As to conditions: for MIC: Pseudomonas aeruginosa. The procedure, abridged: as §1
For experiment [10], the system named is Escherichia coli TK-3113 strain producing IMP-8 (strain D). Nature of the experiment: MIC of test compound alone or with β-lactamase inhibitor at 4 μg/mL. As to conditions: Escherichia coli. On the procedure:
By using a broth microdilution method, the combinational effect of a test compound and a β-lactamase inhibitor was evaluated.
The evaluation test for antibacterial activity was performed in the same manner as in Test Example 1.
Escherichia coli TK-3113 strain producing IMP-8 (hereinafter, called strain D),
An antibacterial activity evaluation test was performed in the same manner as in Test Example 6.
As the bacterial strain, the strains B, C, and D producing β-lactamase and a Klebsiella pneumoniae Y-1069 strain (hereinafter, called strain F) producing OXA-48 and CTX-M-15 were used.

Compound `CC(C)(O/N=C(\C(=O)N[C@@H]1C(=O)N2C[C@@](C(=O)O)(N3CCN(NC(=O)c4c[nH]c5cc(O)c(O)cc5c4=O)C3=O)S[C@H]12)c1csc(N)n1)C(=O)O` [Example 154, (3R,5R,6R)-6-((Z)-2-(2-aminothiazol-4-yl)-2-(((2-carboxypropan-2-yl)oxy)imino)acetamido)-3-(3-(6,7-dihydroxy-4-oxo-1,4-dihydroquinoline-3-carboxamido)-2-oxoimidazolidin-1-yl)-7-oxo-4-thia-1-azabicyclo[3.2.0]heptane-3-carboxylic acid] yielded an Antibacterial activity (MIC) Pseudomonas aeruginosa S-3028 in experiment [1] (Pseudomonas aeruginosa S-3028) of 0.5 µg/mL. Further, the Antibacterial activity (MIC) Escherichia coli TK-1747 in experiment [2] (Escherichia coli TK-1747) was determined as 0.5 µg/mL. In experiment [3] (Pseudomonas aeruginosa S-3759), this compound yielded an Antibacterial activity (MIC) Pseudomonas aeruginosa S-3759 of 4 µg/mL. This compound also had an Antibacterial activity (MIC) Pseudomonas aeruginosa S-2838 in experiment [4] (Pseudomonas aeruginosa S-2838) of 4 µg/mL. In [5] (Klebsiella pneumoniae Y-995), this compound gave an Antibacterial activity (MIC) Klebsiella pneumoniae Y-995 of 0.25 µg/mL. Moreover, the Antibacterial activity (MIC) Klebsiella pneumoniae Y-1007 in experiment [6] (Klebsiella pneumoniae Y-1007) came to 0.25 µg/mL. Besides, the Antibacterial activity (MIC) Klebsiella pneumoniae Y-1062 in experiment [7] (Klebsiella pneumoniae Y-1062) came to 2 µg/mL. In addition, the Antibacterial activity (MIC) Pseudomonas aeruginosa ATCC 27853 in experiment [8] was found to be 2 µg/mL. In experiment [9] (Pseudomonas aeruginosa S-3779), this compound yielded an Antibacterial activity (MIC) Pseudomonas aeruginosa S-3779 of 2 µg/mL.
For the compound `Nc1nc(/C(=N/OC2(C(=O)O)CC2)C(=O)N[C@@H]2C(=O)N3C[C@@](C(=O)O)(N4CCN(NC(=O)c5ccc(O)c(O)c5Cl)C4=O)S[C@H]23)cs1` [Example 8, (3R,5R,6R)-6-((Z)-2-(2-aminothiazol-4-yl)-2-((1-carboxycyclopropoxy)imino)acetamido)-3-(3-(2-chloro-3,4-dihydroxybenzamido)-2-oxoimidazolidin-1-yl)-7-oxo-4-thia-1-azabicyclo[3.2.0]heptane-3-carboxylic acid], the MIC in experiment [1] is 0.5 µg/mL (≈ 0.703 µM); in experiment [2] it was 0.12 µg/mL (≈ 0.169 µM); in experiment [3] it was 2 µg/mL (≈ 2.81 µM); in experiment [4] it was 4 µg/mL (≈ 5.63 µM); in [5], 0.06 µg/mL (≈ 0.0844 µM); in [6] it was less than 0.06 µg/mL. Moreover, the results for the MIC in experiment [7], in experiment [8] and in experiment [9] were 16 µg/mL (≈ 22.5 µM), 0.25 µg/mL (≈ 0.352 µM) and 1 µg/mL (≈ 1.41 µM), respectively.
`CC(C)(O/N=C(\C(=O)N[C@@H]1C(=O)N2C[C@@](C(=O)O)(N3CC[C@@H](NC(=O)C(=O)c4ccc(O)c(O)c4Cl)C3=O)S[C@H]12)c1csc(N)n1)C(=O)O` [Example 85, (3R,5R,6R)-6-((Z)-2-(2-aminothiazol-4-yl)-2-(((2-carboxypropan-2-yl)oxy)imino)acetamido)-3-((R)-3-(2-(2-chloro-3,4-dihydroxyphenyl)-2-oxoacetamido)-2-oxopyrrolidin-1-yl)-7-oxo-4-thia-1-azabicyclo[3.2.0]heptane-3-carboxylic acid]: the MIC in experiment [1] is 0.12 µg/mL (≈ 0.162 µM); in experiment [2], less than 0.06 µg/mL; in experiment [3] it was 0.25 µg/mL (≈ 0.338 µM); in experiment [4], 0.25 µg/mL (≈ 0.338 µM); in experiment [5], less than 0.06 µg/mL; in experiment [6], less than 0.06 µg/mL. Also, the MIC in experiment [7] is 0.12 µg/mL (≈ 0.162 µM); in experiment [8], 0.5 µg/mL (≈ 0.676 µM); in experiment [9], 0.25 µg/mL (≈ 0.338 µM).
As to `CC(C)(O/N=C(\C(=O)N[C@@H]1C(=O)N2C[C@@](C(=O)O)(N3CCN(NC(=O)c4ccc(O)c(O)c4Cl)C3=O)S[C@H]12)c1csc(N)n1)C(=O)O` [Example 2, (3R,5R,6R)-6-((Z)-2-(2-aminothiazol-4-yl)-2-(((2-carboxypropan-2-yl)oxy)imino)acetamido)-3-(3-(2-chloro-3,4-dihydroxybenzamido)-2-oxoimidazolidin-1-yl)-7-oxo-4-thia-1-azabicyclo[3.2.0]heptane-3-carboxylic acid], the MIC in experiment [1] was 1 µg/mL (≈ 1.4 µM); in [2] it was 0.25 µg/mL (≈ 0.351 µM); in [3], 4 µg/mL (≈ 5.61 µM); in experiment [4], 0.5 µg/mL (≈ 0.701 µM); in [5], 0.12 µg/mL (≈ 0.168 µM); in experiment [6], less than 0.06 µg/mL. For the same compound, the MIC stood at 2 µg/mL (≈ 2.8 µM) in experiment [7], 1 µg/mL (≈ 1.4 µM) in experiment [8] and 0.25 µg/mL (≈ 0.351 µM) in experiment [9].
Regarding `CC[C@H](O/N=C(\C(=O)N[C@@H]1C(=O)N2C[C@@](C(=O)O)(N3CCN(NC(=O)C(=O)c4ccc(O)c(O)c4Cl)C3=O)S[C@H]12)c1csc(N)n1)C(=O)O` [Example 105, (3R,5R,6R)-6-((Z)-2-(2-aminothiazol-4-yl)-2-(((S)-1-carboxypropoxy)imino)acetamido)-3-(3-(2-(2-chloro-3,4-dihydroxyphenyl)-2-oxoacetamido)-2-oxoimidazolidin-1-yl)-7-oxo-4-thia-1-azabicyclo[3.2.0]heptane-3-carboxylic acid], the MIC in experiment [1] was less than 0.06 µg/mL; in experiment [2], 0.5 µg/mL (≈ 0.675 µM); in experiment [3] it was 0.5 µg/mL (≈ 0.675 µM); in experiment [4], 0.25 µg/mL (≈ 0.337 µM); in experiment [5] it was 0.12 µg/mL (≈ 0.162 µM); in experiment [6], less than 0.06 µg/mL. The MIC in experiment [7] was 0.5 µg/mL (≈ 0.675 µM); in [8], 0.25 µg/mL (≈ 0.337 µM); in [9], 0.25 µg/mL (≈ 0.337 µM).
With `C[C@H]1CN(/N=C/CNC(=O)c2ccc(O)c(O)c2Cl)C(=O)N1[C@]1(C(=O)O)CN2C(=O)C(NC(=O)/C(=N\OC(C)(C)C(=O)O)c3csc(N)n3)[C@H]2S1` (some centres unmarked) [Example 45], the MIC in experiment [1] is 2 µg/mL (≈ 2.6 µM); in [2], 0.12 µg/mL (≈ 0.156 µM); in [3], 2 µg/mL (≈ 2.6 µM); in [4], 2 µg/mL (≈ 2.6 µM); in experiment [5] it was 0.25 µg/mL (≈ 0.325 µM); in experiment [6] it was less than 0.06 µg/mL. The MIC in [7], in experiment [8] and in [9] was 1 µg/mL (≈ 1.3 µM) each time.
Consider `CC(C)(O/N=C(\C(=O)N[C@@H]1C(=O)N2C[C@@](C(=O)O)(N3CC(=O)N(NC(=O)C(=O)c4ccc(O)c(O)c4Cl)CC3=O)S[C@H]12)c1csc(N)n1)C(=O)O` [Example 82, (3R,5R,6R)-6-((Z)-2-(2-aminothiazol-4-yl)-2-(((2-carboxypropan-2-yl)oxy)imino)acetamido)-3-(4-(2-(2-chloro-3,4-dihydroxyphenyl)-2-oxoacetamido)-2,5-dioxopiperazin-1-yl)-7-oxo-4-thia-1-azabicyclo[3.2.0]heptane-3-carboxylic acid], for which the MIC was determined as 4 µg/mL (≈ 5.2 µM) in experiment [1]; 1 µg/mL (≈ 1.3 µM) in experiment [2]; 2 µg/mL (≈ 2.6 µM) in experiment [3]; 4 µg/mL (≈ 5.2 µM) in [4]; 4 µg/mL (≈ 5.2 µM) in [5]; 0.5 µg/mL (≈ 0.65 µM) in experiment [6]. Also, the figures for the MIC in [7], in [8] and in experiment [9] were 2 µg/mL (≈ 2.6 µM), 0.5 µg/mL (≈ 0.65 µM) and 1 µg/mL (≈ 1.3 µM), respectively.
Take `CC(C)(O/N=C(\C(=O)N[C@@H]1C(=O)N2C(C(=O)[O-])=C(C[n+]3ccccc3)CS[C@H]12)c1csc(N)n1)C(=O)O` [CAZ, ceftazidime hydrate, reference compound]: the MIC in [10] (AVI added at 4 μg/mL) and in experiment [10] (test compound alone (β-lactamase inhibitor N/A)) was greater than 128 µg/mL in each case.
For the compound `C[C@H]1CN(/N=C/CNC(=O)C(=O)c2ccc(O)c(O)c2Cl)C(=O)N1[C@]1(C(=O)O)CN2C(=O)C(NC(=O)/C(=N\OC(C)(C)C(=O)O)c3csc(N)n3)[C@H]2S1` (some centres unmarked) [Example 47], the MIC is 0.12 µg/mL (≈ 0.151 µM) in experiment [1]; less than 0.06 µg/mL in [2]; 1 µg/mL (≈ 1.26 µM) in experiment [3]; 4 µg/mL (≈ 5.02 µM) in experiment [4]; 0.5 µg/mL (≈ 0.628 µM) in experiment [5]; less than 0.06 µg/mL in experiment [6]. The MIC in experiment [7] is 0.25 µg/mL (≈ 0.314 µM); in [8], 0.5 µg/mL (≈ 0.628 µM); in [9], 1 µg/mL (≈ 1.26 µM).
